In this assay the target is T1, JAK2 (Homo sapiens, UniProt O60674).
T1 construct: endogenous in cells; host or cells: mixed Molt4/Ramos lysate (1:2)
Kind of assay: Kinobeads assay, JAK2. The assay is classed as binding. The settings on record: mixed Molt4/Ramos lysate, read-out: Inhibition values (IC50) JAK2. The method, then:
The compounds of the present invention as described in the previous examples were tested in a Kinobeads™ assay as described for ZAP-70 (WO-A 2007/137867). Briefly, test compounds (at various concentrations) and the affinity matrix with the immobilized aminopyrido-pyrimidine ligand 24 were added to cell lysate aliquots and allowed to bind to the proteins in the lysate sample. After the incubation time the beads with captured proteins were separated from the lysate. Bound proteins were then eluted and the presence of JAK2 and JAK3 was detected and quantified using specific antibodies in a dot blot procedure and the Odyssey infrared detection system. Dose response curves for individual kinases were generated and IC50 values calculated. Kinobeads™ assays for ZAP-70 (WO-A 2007/137867) and for kinase selectivity profiling (WO-A 2006/134056) have been previously described.
The affinity matrix was washed two times with 15 mL of 1×DP buffer containing 0.2% NP40 (IGEPAL® CA-630, Sigma, #I3021) and then resuspended in 1×DP buffer containing 0.2% NP40 (3% beads slurry).
5×DP buffer 250 mM Tris-HCl pH 7.4, 25% Glycerol, 7.5 mM MgCl2, 750 mM NaCl, 5 mM Na3VO4; filter the 5×DP buffer through a 0.22 μm filter and store in aliquots at −80° C. The 5×DP buffer is diluted with H2O to 1×DP buffer containing 1 mM DTT and 25 mM NaF.
Stock solutions of test compounds were prepared in DMSO. In a 96 well plate 30 μL solution of diluted test compounds at 5 mM in DMSO were prepared. Starting with this solution a 1:3 dilution series (9 steps) was prepared. For control experiments (no test compound) a buffer containing 2% DMSO was used.
Molt4 cells (ATCC catalogue number CRL-1582) and Ramos cells (ATCC catalogue number CRL-1596) were grown in 1 L Spinner flasks (Integra Biosciences, #182101) in suspension in RPMI 1640 medium (Invitrogen, #21875-034) supplemented with 10% Fetal Bovine Serum (Invitrogen) at a density between 0.15×106 and 1.2×10^6 cells/mL. Cells were harvested by centrifugation, washed once with 1×PBS buffer (Invitrogen, #14190-094) and cell pellets were frozen in liquid nitrogen and subsequently stored at −80° C. Cells were homogenized in a Potter S homogenizer in lysis buffer: 50 mM Tris-HCl, 0.8% NP40, 5% glycerol, 150 mM NaCl, 1.5 mM MgCl2, 25 mM NaF, 1 mM sodium vanadate, 1 mM DTT, pH 7.5. One complete EDTA-free tablet (protease inhibitor cocktail, Roche Diagnostics, 1873580) per 25 mL buffer was added. The material was dounced 10 times using a mechanized POTTER S, transferred to 50 mL falcon tubes, incubated for 30 minutes on ice and spun down for 10 minutes at 20,000 g at 4° C. (10,000 rpm in Sorvall SLA600, precooled). The supernatant was transferred to an ultracentrifuge (UZ)-polycarbonate tube (Beckmann, 355654) and spun for 1 hour at 100,000 g at 4° C. (33.500 rpm in Ti50.2, precooled). The supernatant was transferred again to a fresh 50 mL falcon tube, the protein concentration was determined by a Bradford assay (BioRad) and samples containing 50 mg of protein per aliquot were prepared. The samples were immediately used for experiments or frozen in liquid nitrogen and stored frozen at −80° C.
Cell lysate (approximately 50 mg protein per plate) was thawed in a water bath at room temperature and then stored on ice. To the thawed cell lysate 1×DP 0.8% NP40 buffer containing protease inhibitors (1 tablet for 25 mL buffer; EDTA-free protease inhibitor cocktail; Roche Diagnostics 1873580) was added in order to reach a final protein concentration of 10 mg/mL total protein. The diluted cell lysate was stored on ice. Mixed Molt4/Ramos lysate was prepared by combining one volume of Molt4 lysate and two volumes of Ramos lysate (ratio 1:2).
To a 96 well filter plate (Multiscreen HTS, BV Filter Plates, Millipore #MSBVN1250) were added per well: 100 μL affinity matrix (3% beads slurry), 3 μL of compound solution, and 50 μL of diluted lysate. […]

Structures are written as SMILES.

For 23 molecules, IC50 results are on record in patent US9040545B2, “Heterocyclyl pyrazolopyrimidine analogues as selective JAK inhibitors” (Cellzome Limited, priority 2010, dated 2015).

T1 sequence (O60674 whole entry): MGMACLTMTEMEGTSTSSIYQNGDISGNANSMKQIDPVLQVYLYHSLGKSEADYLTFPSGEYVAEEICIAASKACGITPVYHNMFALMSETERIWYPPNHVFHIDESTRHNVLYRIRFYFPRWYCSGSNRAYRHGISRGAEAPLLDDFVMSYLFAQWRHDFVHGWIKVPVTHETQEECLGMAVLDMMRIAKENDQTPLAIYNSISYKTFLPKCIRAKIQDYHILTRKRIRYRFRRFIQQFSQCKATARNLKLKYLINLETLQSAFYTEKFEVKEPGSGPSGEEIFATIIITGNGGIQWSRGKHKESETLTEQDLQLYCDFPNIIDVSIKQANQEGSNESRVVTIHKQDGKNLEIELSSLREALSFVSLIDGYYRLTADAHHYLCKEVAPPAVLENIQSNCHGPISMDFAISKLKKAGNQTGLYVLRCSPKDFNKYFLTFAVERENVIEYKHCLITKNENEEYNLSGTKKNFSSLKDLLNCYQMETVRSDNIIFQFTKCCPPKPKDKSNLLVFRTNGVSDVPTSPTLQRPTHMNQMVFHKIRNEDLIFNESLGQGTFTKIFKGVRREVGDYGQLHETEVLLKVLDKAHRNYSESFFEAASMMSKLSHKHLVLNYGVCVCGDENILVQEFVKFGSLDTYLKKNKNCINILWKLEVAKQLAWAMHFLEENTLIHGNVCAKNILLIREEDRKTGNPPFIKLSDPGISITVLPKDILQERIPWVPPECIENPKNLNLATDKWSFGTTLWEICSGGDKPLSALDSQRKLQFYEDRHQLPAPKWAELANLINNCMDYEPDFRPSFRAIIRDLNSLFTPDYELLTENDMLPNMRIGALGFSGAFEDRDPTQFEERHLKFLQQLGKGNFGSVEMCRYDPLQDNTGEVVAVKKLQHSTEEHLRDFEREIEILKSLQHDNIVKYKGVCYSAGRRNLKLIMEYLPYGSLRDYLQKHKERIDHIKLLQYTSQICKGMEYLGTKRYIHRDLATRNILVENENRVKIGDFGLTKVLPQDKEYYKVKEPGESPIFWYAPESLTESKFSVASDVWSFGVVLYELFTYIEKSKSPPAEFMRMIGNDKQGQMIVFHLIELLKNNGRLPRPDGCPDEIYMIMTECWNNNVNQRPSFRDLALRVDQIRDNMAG

Take `O=C(CCn1cc(Nc2ncc3cnn(Cc4cccc(N5CCOCC5)c4)c3n2)cn1)NC1CC1` [Example 35, N-Cyclopropyl-3-(4-((1-(3-morpholinobenzyl)-1H-pyrazolo[3,4-d]pyrimidin-6-yl)amino)-1H-pyrazol-1-yl)propanamide]: the IC50 was at least 10 µM.

On to `Cn1cc(Nc2ncc3cnn(Cc4cccc(CN5CCOCC5)c4)c3n2)cn1` [Example 7, N-(1-Methyl-1H-pyrazol-4-yl)-1-(3-(morpholinomethyl)benzyl)-1H-pyrazolo[3,4-d]pyrimidin-6-amine], for which the 50% inhibitory concentration (IC50) was at least 10 µM. The same measure for `CN(C)CC1(Cn2cc(Nc3ncc4cnn(Cc5cccc(N6CCOCC6)c5)c4n3)cn2)COC1` [Example 31, N-(1-((3-((Dimethylamino)methyl)oxetan-3-yl)methyl)-1H-pyrazol-4-yl)-1-(3-morpholinobenzyl)-1H-pyrazolo[3,4-d]pyrimidin-6-amine]: at least 10 µM. With `CN(C)CCCn1cc(Nc2ncc3cnn(Cc4cccc(N5CCOCC5=O)c4)c3n2)cn1` [Example 28, 4-(3-((6-((1-(3-(Dimethylamino)propyl)-1H-pyrazol-4-yl)amino)-1H-pyrazolo[3,4-d]pyrimidin-1-yl)methyl)phenyl)morpholin-3-one] the figure was at least 10 µM; with `Cn1cc(Nc2ncc3cnn(Cc4cc(F)cc(N5CC6(COC6)C5)c4)c3n2)cn1` [Example 90, 1-(3-fluoro-5-(2-oxa-6-azaspiro[3.3]heptan-6-yl)benzyl)-N-(1-methyl-1H-pyrazol-4-yl)-1H-pyrazolo[3,4-d]pyrimidin-6-amine], 1 to 10 µM; with `Cn1cc(Nc2ncc3cnn(Cc4cccc(N5CCC(F)(F)CC5)c4)c3n2)cn1` [Example 19, 1-(3-(4,4-Difluoropiperidin-1-yl)benzyl)-N-(1-methyl-1H-pyrazol-4-yl)-1H-pyrazolo[3,4-d]pyrimidin-6-amine], at least 10 µM. The same measure for `CN1CCN(c2cccc(Cn3ncc4cnc(Nc5cnn(C)c5)nc43)c2)CC1` [Example 10, N-(1-Methyl-1H-pyrazol-4-yl)-1-(3-(4-methylpiperazin-1-yl)benzyl)-1H-pyrazolo[3,4-d]pyrimidin-6-amine]: at least 10 µM; for `CC(C)n1cc(-c2cccc(Cn3ncc4cnc(Nc5cnn(C)c5)nc43)c2)cn1` [Example 117, 1-(3-(1-isopropyl-1H-pyrazol-4-yl)benzyl)-N-(1-methyl-1H-pyrazol-4-yl)-1H-pyrazolo[3,4-d]pyrimidin-6-amine]: at least 10 µM.

Turning to `O=C1COCCN1c1cc(F)cc(Cn2ncc3cnc(Nc4cnn(CC5CCNC5)c4)nc32)c1` (centres unmarked) [Example 101, 4-(3-fluoro-5-((6-((1-(pyrrolidin-3-ylmethyl)-1H-pyrazol-4-yl)amino)-1H-pyrazolo[3,4-d]pyrimidin-1-yl)methyl)phenyl)morpholin-3-one], the concentration for half-maximal inhibition (IC50) lay within 1 to 10 µM. The same measure for `O=C1CC(Cn2cc(Nc3ncc4cnn(Cc5cc(F)cc(N6CCOCC6=O)c5)c4n3)cn2)CN1` (centres unmarked) [Example 105, 4-(3-fluoro-5-((6-((1-((5-oxopyrrolidin-3-yl)methyl)-1H-pyrazol-4-yl)amino)-1H-pyrazolo[3,4-d]pyrimidin-1-yl)methyl)phenyl)morpholin-3-one]: 1 to 10 µM; for `CN(C)C(=O)CCn1cc(Nc2ncc3cnn(Cc4cccc(N5CCOCC5)c4)c3n2)cn1` [Example 16, N,N-Dimethyl-3-(4-((1-(3-morpholinobenzyl)-1H-pyrazolo[3,4-d]pyrimidin-6-yl)amino)-1H-pyrazol-1-yl)propanamide]: 1 to 10 µM. With `O=C(CCn1cc(Nc2ncc3cnn(Cc4cccc(N5CCOCC5)c4)c3n2)cn1)N1CCCCC1` [Example 20, 3-(4-((1-(3-Morpholinobenzyl)-1H-pyrazolo[3,4-d]pyrimidin-6-yl)amino)-1H-pyrazol-1-yl)-1-(piperidin-1-yl)propan-1-one] the figure was at least 10 µM; with `C[C@@H]1COCCN1c1cccc(Cn2ncc3cnc(Nc4cnn(C)c4)nc32)c1` [Example 113, (R)-N-(1-methyl-1H-pyrazol-4-yl)-1-(3-(3-methylmorpholino)benzyl)-1H-pyrazolo[3,4-d]pyrimidin-6-amine], at least 10 µM. With `Cc1c(Cn2ncc3cnc(Nc4cnn(C)c4)nc32)cccc1N1CCOCC1` [Example 11, N-(1-Methyl-1H-pyrazol-4-yl)-1-(2-methyl-3-morpholinobenzyl)-1H-pyrazolo[3,4-d]pyrimidin-6-amine] the figure was at least 10 µM; with `O=C(c1cc(F)c(F)c(Cn2ncc3cnc(Nc4cnn(CCO)c4)nc32)c1F)N1CCOCC1` [Example 111, morpholino(2,4,5-trifluoro-3-((6-((1-(2-hydroxyethyl)-1H-pyrazol-4-yl)amino)-1H-pyrazolo[3,4-d]pyrimidin-1-yl)methyl)phenyl)methanone], 1 to 10 µM. As for `Cn1cc(Nc2ncc3cnn(Cc4cccc(N5CC6(COC6)C5)c4)c3n2)cn1` [Example 89, 1-(3-(2-oxa-6-azaspiro[3.3]heptan-6-yl)benzyl)-N-(1-methyl-1H-pyrazol-4-yl)-1H-pyrazolo[3,4-d]pyrimidin-6-amine], the half-maximal inhibitory concentration (IC50) is at least 10 µM.

Take `Cn1cc(Nc2ncc3cnn(Cc4cccc(N5CC6(COC6)C5)c4F)c3n2)cn1` [Example 91, 1-(2-fluoro-3-(2-oxa-6-azaspiro[3.3]heptan-6-yl)benzyl)-N-(1-methyl-1H-pyrazol-4-yl)-1H-pyrazolo[3,4-d]pyrimidin-6-amine]: the IC50 fell in the range of 1 to 10 µM.

`Cn1cc(Nc2ncc3cnn(Cc4c(F)c(F)cc(N5CCOCC5)c4F)c3n2)cn1` [Example 17, N-(1-Methyl-1H-pyrazol-4-yl)-1-(2,3,6-trifluoro-5-morpholinobenzyl)-1H-pyrazolo[3,4-d]pyrimidin-6-amine]: the IC50 lay within 1 to 10 µM. Consider `CCOC(=O)C1CCCN(c2cccc(Cn3ncc4cnc(Nc5cnn(C)c5)nc43)c2)C1` (centres unmarked) [Example 13, Ethyl 1-(3-((6-((1-methyl-1H-pyrazol-4-yl)amino)-1H-pyrazolo[3,4-d]pyrimidin-1-yl)methyl)phenyl)piperidine-3-carboxylate], for which the half-inhibitory concentration (IC50) is at least 10 µM.

Take `OCCn1cc(Nc2ncc3cnn(Cc4cccc(N5CCOCC5)c4F)c3n2)cn1` [Example 39, 2-(4-((1-(2-Fluoro-3-morpholinobenzyl)-1H-pyrazolo[3,4-d]pyrimidin-6-yl)amino)-1H-pyrazol-1-yl)ethanol]: the concentration for half-maximal inhibition (IC50) is 1 to 10 µM. With `Cn1cc(Nc2ncc3cnn(Cc4cccc(N5CCC(=O)CC5)c4)c3n2)cn1` [Example 108, 1-(3-((6-((1-methyl-1H-pyrazol-4-yl)amino)-1H-pyrazolo[3,4-d]pyrimidin-1-yl)methyl)phenyl)piperidin-4-one], the half-maximal inhibitory concentration (IC50) was at least 10 µM. The same measure for `CNC(=O)CCn1cc(Nc2ncc3cnn(Cc4cccc(N5CCOCC5)c4)c3n2)cn1` [Example 24, N-Methyl-3-(4-((1-(3-morpholinobenzyl)-1H-pyrazolo[3,4-d]pyrimidin-6-yl)amino)-1H-pyrazol-1-yl)propanamide]: at least 10 µM; for `Cn1cc(Nc2ncc3cnn(Cc4cccc(N5CCOCC5=O)c4F)c3n2)cn1` [Example 40, 4-(2-Fluoro-3-((6-((1-methyl-1H-pyrazol-4-yl)amino)-1H-pyrazolo[3,4-d]pyrimidin-1-yl)methyl)phenyl)morpholin-3-one]: 1 to 10 µM.
